Source: PubChem BioAssay AID1259411 (Chemical Carcinogenesis Research Information System (CCRIS), 2018)
“Also recorded” adds a separate entry of the source. Active and inactive are the calls of the source. The rule behind the calls is not given here.

Test system: rodent carcinogenicity bioassays, tumor incidence
Assay: CCRIS carcinogenicity studies
In short: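 NCI-built, expert-reviewed records of carcinogenicity and related test outcomes (mutagenicity, tumor promotion/inhibition) compiled from published and report sources, historical span 1985-2011, not updated.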

C=C(C)c1ccccc1
carcinogen call (Species: Mouse, Strain/Sex: B6C3F1/Female (50/group), Route: Inhalation, Dose: 0, 100, 300, 600 ppm for 6 hr/d, 5 d/wk, except holidays, for 105 wk, Dose: 0, 100, 300, 600 ppm for 6 hr/d, 5 d/wk, except holidays, for 105 wk, Tumor Site: Type of Lesion: Liver: hepatocelllular carcinoma (3/50, 9/50, 6/50, 18/50), hepatocellular adenoma and carcinoma combined (13/50, 26/50): active; positive (ntp reports as clear evidence) | carcinogen call (Species: Mouse, Strain/Sex: B6C3F1/Male (50/group), Route: Inhalation, Dose: 0, 100, 300, 600 ppm for 6 hr/d, 5 d/wk, except holidays, for 105 wk, Dose: 0, 100, 300, 600 ppm for 6 hr/d, 5 d/wk, except holidays, for 105 wk, Tumor Site: Type of Lesion: Liver: hepatocellular adenoma and carcinoma combined (28/50, 36/50, 33/50, 37/50 (considered equivocal))): inactive; negative; p value not significant (ntp reports as equivocal evidence) | carcinogen call (Species: Rat, Strain/Sex: F344/N / Female (50/group), Route: Inhalation, Dose: 0, 100, 300, 1000 ppm for 6 hr/d, 5 d/wk, except holidays, for 105 wk, Dose: 0, 100, 300, 1000 ppm for 6 hr/d, 5 d/wk, except holidays, for 105 wk): inactive; negative | carcinogen call (Species: Rat, Strain/Sex: F344/N / Male (50/group), Route: Inhalation, Dose: 0, 100, 300, 1000 ppm for 6 hr/d, 5 d/wk, except holidays, for 105 wk, Dose: 0, 100, 300, 1000 ppm for 6 hr/d, 5 d/wk, except holidays, for 105 wk, Tumor Site: Type of Lesion: Kidney: renal tubule adenoma and carcinoma combined (0/50, 0/50, 3/50, 7/50 (single and step sections)) Mononuclear cell): active; positive (ntp reports as some evidence)

Cn1c(N)nc2c3cccnc3ccc21
carcinogen call (Species: MONKEY, Strain/Sex: MACAQUE/MALE,FEMALE, Route: GAVAGE, Dose: 0, 10, 20 MG/KG 5/D/WK FOR DURATION OF STUDY (STUDY DURATION: 91 MO), Dose: 0, 10, 20 MG/KG 5/D/WK FOR DURATION OF STUDY (STUDY DURATION: 91 MO), Tumor Site: Type of Lesion: LIVER: HEPATOCELLULAR CARCINOMA): active; positive | carcinogen call (Species: MOUSE, Strain/Sex: B6C3F1/MALE, Route: INTRAPERITONEAL, Dose: 0, 0.625 UMOL IN 35 µL DMSO ON D 1, 8, AND 15 AFTER BIRTH (STUDY DURATION: 8 MO), Tumor Site: Type of Lesion: LIVER: HEPATOCELLULAR ADENOMA): active; positive | carcinogen call (Species: MOUSE, Strain/Sex: B6C3F1/MALE, Route: INTRAPERITONEAL, Dose: 0, 0.625 UMOL IN 35 µL DMSO ON D 1, 8, AND 15 AFTER BIRTH (STUDY DURATION: 12 MO), Tumor Site: Type of Lesion: LIVER: HEPATOCELLULAR ADENOMA): active; positive | carcinogen call (Species: MOUSE, Strain/Sex: B6C3F1/MALE, Route: INTRAPERITONEAL, Dose: 0, 1.25 UMOL IN 35 µL DMSO ON D 1, 8, AND 15 AFTER BIRTH (STUDY DURATION: 8 MO), Tumor Site: Type of Lesion: LIVER: HEPATOCELLULAR ADENOMA): active; positive | carcinogen call (Species: MOUSE, Strain/Sex: B6C3F1/MALE, Route: INTRAPERITONEAL, Dose: 0, 1.25 UMOL IN 35 µL DMSO ON D 1, 8, AND 15 AFTER BIRTH (STUDY DURATION: 12 MO), Tumor Site: Type of Lesion: LIVER: HEPATOCELLULAR ADENOMA, HEPATOCELLULAR CARCINOMA): active; positive | carcinogen call (Species: MOUSE, Strain/Sex: CD-1/FEMALE, Route: INTRAPERITONEAL, ORAL, Dose: 0, 5 µL OF A 14 MG/ML SOLUTION IN DMSO ON DAYS 1, 3, 5, 7, 10, 13, 17, 21, 24 AND 28 OF LIFE THEN 2/WK TO WK 10 FOLLOWED, Tumor Site: Type of Lesion: LIVER: CARCINOMA, LUNG: ADENOMA): active; positive | carcinogen call (Species: MOUSE, Strain/Sex: CD-1/MALE, Route: INTRAPERITONEAL, ORAL, Dose: 0, 5 µL OF A 14 MG/ML SOLUTION IN DMSO ON DAYS 1, 3, 5, 7, 10, 13, 17, 21, 24 AND 28 OF LIFE THEN 2/WK TO WK 10 FOLLOWED, Tumor Site: Type of Lesion: LIVER: CARCINOMA): active; positive | carcinogen call (Species: MOUSE, Strain/Sex: CDF1/FEMALE, Route: ORAL, Dose: 0, 0.03% IN DIET FOR UP TO 675 D (STUDY DURATION: 675 D), Tumor Site: Type of Lesion: LIVER: HEPATOCELLULAR ADENOMA OR CARCINOMA OR HEMANGIOENDOTHELIOMA, FORESTOMACH: PAPILLOMA OR SQUAMOUS CELL CARCINOMA, L, Tumor Site: Type of Lesion: LIVER: HEPATOCELLULAR ADENOMA OR CARCINOMA OR HEMANGIOENDOTHELIOMA, FORESTOMACH: PAPILLOMA OR SQUAMOUS CELL CARCINOMA, L): active; positive | carcinogen call (Species: MOUSE, Strain/Sex: CDF1/MALE, Route: ORAL, Dose: 0, 0.03% IN DIET FOR UP TO 675 D (STUDY DURATION: 675 D), Tumor Site: Type of Lesion: LIVER: HEPATOCELLULAR ADENOMA OR CARCINOMA OR HEMANGIOENDOTHELIOMA, FORESTOMACH: PAPILLOMA OR SQUAMOUS CELL CARCINOMA, L, Tumor Site: Type of Lesion: LIVER: HEPATOCELLULAR ADENOMA OR CARCINOMA OR HEMANGIOENDOTHELIOMA, FORESTOMACH: PAPILLOMA OR SQUAMOUS CELL CARCINOMA, L): active; positive | carcinogen call (Species: MOUSE, Strain/Sex: EU-PIM-1/FEMALE, Route: ORAL, Dose: 0, 0.03% IN DIET FOR 24 WK (STUDY DURATION: 40 WK)): inactive; negative | carcinogen call (Species: MOUSE, Strain/Sex: EU-PIM-1/MALE, Route: ORAL, Dose: 0, 0.03% IN DIET FOR 24 WK (STUDY DURATION: 40 WK)): inactive; negative | carcinogen call (Species: MOUSE, Strain/Sex: NON-TRANSGENIC WILD-TYPE/FEMALE, Route: ORAL, Dose: 0, 0.03% IN DIET FOR 24 WK (STUDY DURATION: 40 WK)): inactive; negative | carcinogen call (Species: MOUSE, Strain/Sex: NON-TRANSGENIC WILD-TYPE/MALE, Route: ORAL, Dose: 0, 0.03% IN DIET FOR 24 WK (STUDY DURATION: 40 WK)): inactive; negative | carcinogen call (Species: MOUSE, Strain/Sex: SEVERE COMBINED IMMUNODEFICIENT/FEMALE, Route: ORAL, Dose: 0, 300 PPM IN THE DIET FOR 78 WK (STUDY DURATION: 78 WK), Tumor Site: Type of Lesion: LIVER: HEPATOCELLULAR CARCINOMA): active; positive | carcinogen call (Species: MOUSE, Strain/Sex: TRANSGENIC EU-PIM-1/FEMALE, Route: ORAL, Dose: 0, 0.03% IN DIET FOR 24 WK (STUDY DURATION: 40 WK)): inactive; negative | carcinogen call (Species: MOUSE, Strain/Sex: TRANSGENIC EU-PIM-1/MALE, Route: ORAL, Dose: 0, 0.03% IN DIET FOR 24 WK (STUDY DURATION: 40 WK)): inactive; negative | carcinogen call (Species: MOUSE, Strain/Sex: WILD-TYPE/FEMALE, Route: ORAL, Dose: 0, 0.03% IN DIET FOR 24 WK (STUDY DURATION: 40 WK)): inactive; negative | carcinogen call (Species: MOUSE, Strain/Sex: WILD-TYPE/MALE, Route: ORAL, Dose: 0, 0.03% IN DIET FOR 24 WK (STUDY DURATION: 40 WK)): inactive; negative | carcinogen call (Species: Mouse, Strain/Sex: Non transgenic rasH2 Wild-type/ Female (10/10)/(15/15), Route: Oral, Dose: 300 ppm in the diet starting at 7 weeks of age (Study duration: 26 weeks)): inactive; negative: although only hyperplasia observed in wild-type mouse, forestomach pa | carcinogen call (Species: Mouse, Strain/Sex: Non transgenic rasH2 Wild-type/ Male (10/10)/(15/15), Route: Oral, Dose: 300 ppm in the diet starting at 7 weeks of age (Study duration: 26 wks)): inactive; negative; although only hyperplasia observed in wild-type mouse, forestomach pa | carcinogen call (Species: Mouse, Strain/Sex: Parp-1+/+ C57BL/6/Male, Route: Oral, Dose: 300 ppm in diet for 60 wk, study duration 60 wk, Tumor Site: Type of Lesion: Spleen: Malignant lymphoma (3/18)): active; positive (no lung adenomas or forestomach papillomas found). parp-1 deficiency (; also recorded: active; positive (however, no lung adenomas or forestomach papillomas found. parp-1 defi | carcinogen call (Species: RAT, Strain/Sex: F344/MALE, Route: INTRARECTAL, Dose: 0, 50.5 MG/KG IN 1.7 ML/KG DMSO INFUSED 3/WK FOR 2 MO THEN 2/WK FOR DURATION OF STUDY (STUDY DURATION: 18 MO), Tumor Site: Type of Lesion: COLON: CARCINOMA, SKIN: SEBACEOUS SQUAMOUS CELL CARCINOMA): active; positive | carcinogen call (Species: RAT, Strain/Sex: SPRAGUE-DAWLEY/FEMALE, Route: GAVAGE, Dose: 0, 0.35 MMOL/KG BW IN 0.25 ML OF 5% EMULPHOR IN WATER 3/WK FOR WK 1-4 THEN 2/WK FOR WK 5-8 FOLLOWED BY 1/WK FOR 23 WK (S, Tumor Site: Type of Lesion: MAMMARY GLAND: CARCINOMA, LIVER: TUMOR, EAR DUCT: TUMOR, Tumor Site: Type of Lesion: MAMMARY GLAND: CARCINOMA, LIVER: TUMOR, EAR DUCT: TUMOR): active; positive | carcinogen call (Species: RAT, Strain/Sex: WISTAR/MALE, Route: INTRAGASTRIC, Dose: 0, 10 MG/KG IN ACIDIFIED WATER 1/D FOR 2 WK (STUDY DURATION: 58 WK)): inactive; negative

Nc1cc(Cl)ccc1O
carcinogen call (Species: Rat, Strain/Sex: F344/DuCrlCrlj / Female, Route: Oral, Dose: 0, 1280, 3200, 8000 ppm in diet for 2 yr study duration, Dose: 0, 1280, 3200, 8000 ppm in diet for 2 yr study duration, Tumor Site: Type of Lesion: Forestomach: squamous cell papilloma/carcinoma): active; positive | carcinogen call (Species: Rat, Strain/Sex: F344/DuCrlCrlj / Male, Route: Oral, Dose: 0, 1280, 3200, 8000 ppm in diet for 2 yr study duration, Dose: 0, 1280, 3200, 8000 ppm in diet for 2 yr study duration, Tumor Site: Type of Lesion: Forestomach: squamous cell papilloma/carcinoma. Urinary bladder: papilloma/carcinoma): active; positive
